{
  "source": "patent US9895349B2",
  "about": "“N-phenyl-carboxamide derivatives and the use thereof as medicaments for the treatment of hepatitis B” (priority 2013, dated 2018)",
  "key": {"[1]": {"tested_on": "HepG2 cells", "assay": "Cytotoxicity in HepG2 cells, Resazurin assay", "settings": "read-out: HepG2 4 days CC50, 4 days incubation, Resazurin viability"}, "[2]": {"tested_on": "HBV", "assay": "Anti-HBV activity, HepG2.2.15 stable transfected cell line, HBV DNA from secreted virions by realtime PCR", "assay_type": "cell-based, Hepatitis B virus (HBV)", "settings": "HepG2.2.15 cells, 6 days of treatment"}, "[3]": {"tested_on": "HBV", "assay": "Anti-HBV activity, HepG2.117 inducibly HBV producing cell line (Tet-off), intracellular HBV DNA by realtime PCR", "assay_type": "cell-based, Hepatitis B virus (HBV)", "settings": "HepG2.117 cells, 3 days of treatment"}, "[4]": {"assay": "in vitro", "settings": "human"}, "[5]": {"assay": "Cytotoxicity in HepG2 cells, Resazurin assay", "settings": "human"}, "[6]": {"settings": "Hepatitis B virus, HepG2.2.15, 144 h"}, "[7]": {"settings": "Hepatitis B virus, HepG2.117, 72 h"}},
  "data": [
    {"smiles": "Cc1cc(NC(=O)[C@H]2CCN(S(=O)(=O)C3CC3)C2)ccc1F", "note": "[Compound 5]", "values": [
      {"measurement": "CC50", "setting": "[1]", "result": "> 25", "unit": "µM"},
      {"measurement": "EC50", "setting": "[2]", "result": 9.1, "unit": "µM"},
      {"measurement": "EC50", "setting": "[3]", "result": 2, "unit": "µM"}
    ]},
    {"smiles": "COC(=O)N1CC[C@H](C(=O)Nc2ccc(F)c(C)c2)C1", "note": "[Compound 22]", "values": [
      {"measurement": "CC50", "setting": "[1]", "result": "> 25", "unit": "µM"},
      {"measurement": "EC50", "setting": "[2]", "result": 13.6, "unit": "µM"},
      {"measurement": "EC50", "setting": "[3]", "result": 8.6, "unit": "µM"}
    ]},
    {"smiles": "Cc1cc(NC(=O)[C@H]2CCN(S(=O)(=O)C3CCCCC3)C2)ccc1F", "note": "[Compound 23]", "values": [
      {"measurement": "CC50", "setting": "[1]", "result": "> 25", "unit": "µM"},
      {"measurement": "EC50", "setting": "[2]", "result": 0.96, "unit": "µM"},
      {"measurement": "EC50", "setting": "[3]", "result": 1.4, "unit": "µM"}
    ]},
    {"smiles": "Cc1cc(NC(=O)[C@H]2CCN(S(=O)(=O)C(C)C)C2)ccc1F", "note": "[Compound 7]", "values": [
      {"measurement": "CC50", "setting": "[1]", "result": "> 25", "unit": "µM"},
      {"measurement": "EC50", "setting": "[2]", "result": 13.5, "unit": "µM"},
      {"measurement": "EC50", "setting": "[3]", "result": 4.7, "unit": "µM"}
    ]},
    {"smiles": "Cc1cc(NC(=O)C2CCN(S(=O)(=O)C3CCOC3)C2)ccc1F", "note": "(mixture of isomers) [Compound 12]", "values": [
      {"measurement": "CC50", "setting": "[1]", "result": "> 25", "unit": "µM"},
      {"measurement": "EC50", "setting": "[2]", "result": 4.1, "unit": "µM"},
      {"measurement": "EC50", "setting": "[3]", "result": 2.3, "unit": "µM"}
    ]},
    {"smiles": "COCC(C)S(=O)(=O)N1CCC(C(=O)Nc2ccc(F)c(C)c2)C1", "note": "(mixture of isomers) [Compound 18]", "values": [
      {"measurement": "CC50", "setting": "[1]", "result": "> 25", "unit": "µM"},
      {"measurement": "EC50", "setting": "[2]", "result": 5.8, "unit": "µM"},
      {"measurement": "EC50", "setting": "[3]", "result": 5.3, "unit": "µM"}
    ]},
    {"smiles": "Cc1cc(NC(=O)[C@H]2CCN(C(=O)OC3COC3)C2)ccc1F", "note": "[Compound 20]", "values": [
      {"measurement": "CC50", "setting": "[1]", "result": "> 25", "unit": "µM"},
      {"measurement": "EC50", "setting": "[2]", "result": 16.1, "unit": "µM"},
      {"measurement": "EC50", "setting": "[3]", "result": 4, "unit": "µM"}
    ]},
    {"smiles": "Cc1cc(NC(=O)[C@H]2CCN(C(=O)OC(C)C)C2)ccc1F", "note": "[Compound 21]", "values": [
      {"measurement": "CC50", "setting": "[1]", "result": "> 25", "unit": "µM"},
      {"measurement": "EC50", "setting": "[2]", "result": 5.4, "unit": "µM"},
      {"measurement": "EC50", "setting": "[3]", "result": 2.7, "unit": "µM"}
    ]},
    {"smiles": "Cc1cc(NC(=O)C2(F)CCN(S(=O)(=O)N[C@H]3CCOC3)C2)ccc1F", "note": "(single isomer, unassigned) [Compound 42b]", "values": [
      {"measurement": "CC50", "setting": "[1]", "result": "> 25", "unit": "µM"},
      {"measurement": "EC50", "setting": "[2]", "result": 3.25, "unit": "µM"},
      {"measurement": "EC50", "setting": "[3]", "result": 1.69, "unit": "µM"}
    ]},
    {"smiles": "Cc1cc(NC(=O)C2(F)CCN(S(=O)(=O)NC(C)C)C2)ccc1F", "note": "(racemic) [Compound 35b, 3-fluoro-N-(4-fluoro-3-methyl-phenyl)-1-(isopropylsulfamoyl)pyrrolidine-3-carboxamide]", "values": [
      {"measurement": "CC50", "setting": "[1]", "result": "> 25", "unit": "µM"},
      {"measurement": "EC50", "setting": "[2]", "result": "> 5", "unit": "µM"},
      {"measurement": "EC50", "setting": "[3]", "result": "> 5", "unit": "µM"}
    ]},
    {"smiles": "Cc1cc(NC(=O)C2CCN(S(=O)(=O)C3CS(=O)(=O)CC3O)C2)ccc1F", "note": "(mixture of isomers) [Compound 15]", "values": [
      {"measurement": "CC50", "setting": "[1]", "result": "> 25", "unit": "µM"},
      {"measurement": "EC50", "setting": "[2]", "result": 12.5, "unit": "µM"},
      {"measurement": "EC50", "setting": "[3]", "result": 14.7, "unit": "µM"}
    ]},
    {"smiles": "Cc1cc(NC(=O)C2CCN(S(=O)(=O)C3CCCCC3O)C2)ccc1F", "note": "(mixture of isomers) [Compound 16]", "values": [
      {"measurement": "CC50", "setting": "[1]", "result": "> 25", "unit": "µM"},
      {"measurement": "EC50", "setting": "[2]", "result": 3.5, "unit": "µM"},
      {"measurement": "EC50", "setting": "[3]", "result": 2.5, "unit": "µM"}
    ]},
    {"smiles": "COCCS(=O)(=O)N1CC[C@H](C(=O)Nc2ccc(F)c(C)c2)C1", "note": "[Compound 14]", "values": [
      {"measurement": "CC50", "setting": "[1]", "result": "> 25", "unit": "µM"},
      {"measurement": "EC50", "setting": "[2]", "result": 1.9, "unit": "µM"},
      {"measurement": "EC50", "setting": "[3]", "result": 1.5, "unit": "µM"}
    ]},
    {"smiles": "Cc1cc(NC(=O)C2CCN(S(=O)(=O)C(C)CC(C)C)C2)ccc1F", "note": "(mixture of isomers) [Compound 17]", "values": [
      {"measurement": "CC50", "setting": "[1]", "result": "> 25", "unit": "µM"},
      {"measurement": "EC50", "setting": "[2]", "result": 5.9, "unit": "µM"},
      {"measurement": "EC50", "setting": "[3]", "result": 5.9, "unit": "µM"}
    ]},
    {"smiles": "Cc1cc(NC(=O)C2(C)CCN(S(=O)(=O)CC(C)C)C2)ccc1F", "note": "(racemic) [Compound 29b, N-(4-fluoro-3-methyl-phenyl)-1-isobutylsulfonyl-3-methyl-pyrrolidine-3-carboxamide]", "values": [
      {"measurement": "CC50", "setting": "[1]", "result": "> 25", "unit": "µM"},
      {"measurement": "EC50", "setting": "[2]", "result": 18.3, "unit": "µM"},
      {"measurement": "EC50", "setting": "[3]", "result": 6.9, "unit": "µM"}
    ]},
    {"smiles": "Cc1cc(NC(=O)C2CCN(S(=O)(=O)C3CCS(=O)(=O)C3)C2)ccc1F", "note": "(mixture of isomers) [Compound 13]", "values": [
      {"measurement": "CC50", "setting": "[1]", "result": "> 25", "unit": "µM"},
      {"measurement": "EC50", "setting": "[2]", "result": 4.6, "unit": "µM"},
      {"measurement": "EC50", "setting": "[3]", "result": 3.4, "unit": "µM"}
    ]},
    {"smiles": "Cc1cc(NC(=O)C2CN(S(=O)(=O)NC(C)C)C3CC23)ccc1F", "note": "(single isomer, unassigned) [Compound 36b, N-(4-fluoro-3-methyl-phenyl)-2-(isopropylsulfamoyl)-2-azabicyclo[3.1.0]hexane-4-carboxamide]", "values": [
      {"measurement": "CC50", "setting": "[1]", "result": "> 25", "unit": "µM"},
      {"measurement": "EC50", "setting": "[2]", "result": 0.46, "unit": "µM"},
      {"measurement": "EC50", "setting": "[3]", "result": 0.38, "unit": "µM"}
    ]},
    {"smiles": "Cc1cc(NC(=O)[C@H]2CCN(S(C)(=O)=O)C2)ccc1F", "note": "[Compound 4]", "values": [
      {"measurement": "CC50", "setting": "[1]", "result": "> 25", "unit": "µM"},
      {"measurement": "EC50", "setting": "[2]", "result": 16.4, "unit": "µM"},
      {"measurement": "EC50", "setting": "[3]", "result": 10.7, "unit": "µM"}
    ]},
    {"smiles": "Cc1cc(NC(=O)[C@H]2C[C@@H]3CC[C@H]2N3S(=O)(=O)CC(C)C)ccc1F", "note": "(racemic) [Compound 30, N-(4-fluoro-3-methyl-phenyl)-7-isobutylsulfonyl-7-azabicyclo[2.2.1]heptane-3-carboxamide]", "values": [
      {"measurement": "EC50", "setting": "[2]; [6]", "result": 0.61, "unit": "µM"},
      {"measurement": "CC50 at 4 days", "setting": "[4]", "result": "> 25", "unit": "µM"},
      {"measurement": "EC50", "setting": "[3]; [7]", "result": 4.7, "unit": "µM"}
    ]},
    {"smiles": "Cc1cc(NC(=O)[C@H]2CCN(S(=O)(=O)N[C@@H]3c4ccccc4C[C@H]3O)C2)ccc1F", "note": "[Compound 37, (3S)—N-(4-fluoro-3-methyl-phenyl)-1-[[(1R,2R)-2-hydroxyindan-1-yl]sulfamoyl]pyrrolidine-3-carboxamide]", "values": [
      {"measurement": "CC50 at 4 days", "setting": "[5]", "result": "> 25", "unit": "µM"},
      {"measurement": "EC50", "setting": "[2]; [6]", "result": 0.27, "unit": "µM"},
      {"measurement": "EC50", "setting": "[3]; [7]", "result": 0.53, "unit": "µM"}
    ]},
    {"smiles": "Cc1cc(NC(=O)C2CN(S(=O)(=O)NC(C)C)C3CC23)ccc1F", "note": "(single isomer, unassigned) [Compound 36a, N-(4-fluoro-3-methyl-phenyl)-2-(isopropylsulfamoyl)-2-azabicyclo[3.1.0]hexane-4-carboxamide]", "values": [
      {"measurement": "CC50 at 4 days", "setting": "[5]", "result": "> 25", "unit": "µM"},
      {"measurement": "EC50", "setting": "[2]", "result": 2.39, "unit": "µM"},
      {"measurement": "EC50", "setting": "[3]", "result": 2.65, "unit": "µM"}
    ]},
    {"smiles": "CCC(CC)S(=O)(=O)N1CC[C@H](C(=O)Nc2ccc(F)c(C)c2)C1", "note": "[Compound 19]", "values": [
      {"measurement": "CC50", "setting": "[1]", "result": "> 25", "unit": "µM"},
      {"measurement": "EC50", "setting": "[2]", "result": 8.4, "unit": "µM"},
      {"measurement": "EC50", "setting": "[3]", "result": 2.9, "unit": "µM"}
    ]},
    {"smiles": "Cc1cc(NC(=O)C2(C)CCN(S(=O)(=O)CC(C)C)C2)ccc1F", "note": "(racemic) [Compound 29a, N-(4-fluoro-3-methyl-phenyl)-1-isobutylsulfonyl-3-methyl-pyrrolidine-3-carboxamide]", "values": [
      {"measurement": "CC50", "setting": "[1]", "result": "> 25", "unit": "µM"},
      {"measurement": "EC50", "setting": "[2]", "result": "> 25", "unit": "µM"},
      {"measurement": "EC50", "setting": "[3]", "result": "> 25", "unit": "µM"}
    ]},
    {"smiles": "Cc1cc(NC(=O)[C@H]2CCN(C(=O)OCC(C)C)C2)ccc1F", "note": "[Compound 26, isobutyl (3S)-3-[(4-fluoro-3-methyl-phenyl)carbamoyl]pyrrolidine-1-carboxylate]", "values": [
      {"measurement": "CC50 at 4 days", "setting": "[5]", "result": "> 25", "unit": "µM"},
      {"measurement": "EC50", "setting": "[2]; [6]", "result": 4.4, "unit": "µM"},
      {"measurement": "EC50", "setting": "[3]; [7]", "result": 0.41, "unit": "µM"}
    ]}
  ]
}
